Data as given in ChEMBL document CHEMBL1201862, “PubChem BioAssay data set” (2004).
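Values below derive from 48-hour exposures of cells grown in 96-well plates, with endpoints linearly interpolated between the two concentrations bracketing the appropriate inhibition level. Here, GI50 denotes the concentration required for 50% inhibition of growth.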 Active and inactive are the calls of the source. Cut-off read from the data, not from the text of the source: active = GI50 up to about 1.1 µM and inactive = higher.

What was measured:
Assay in all cases: NCI-60 cell line screen, 48 h
[1] = system: TK-10
[2] = system: SR
[3] = system: SNB-75
[4] = system: XF498
[5] = system: SK-MEL-5
[6] = system: HCC 2998
[7] = system: A498
[8] = system: CCRF-CEM
[9] = system: OVCAR-4
[10] = system: KM12
[11] = system: SK-OV-3
[12] = system: ACHN
[13] = system: LOX IMVI
[14] = system: HCT-116
[15] = system: SK-MEL-28
[16] = system: SNB-19
[17] = system: A549
[18] = system: SF-295
[19] = system: RPMI-8226
[20] = system: UACC-62
[21] = system: M14
[22] = system: NCI-H23
[23] = system: COLO 205
[24] = system: LXFL 529
[25] = system: MOLT-4
[26] = system: DMS-273
[27] = system: M19-MEL
[28] = system: UO-31
[29] = system: RXF 393
[30] = system: IGROV-1
[31] = system: EKVX
[32] = system: HOP-18
[33] = system: 786-0
[34] = system: HL-60
[35] = system: SNB-78
[36] = system: UACC-257
[37] = system: SN12C
[38] = system: HT-29
[39] = system: OVCAR-3
[40] = system: SF-268
[41] = system: SK-MEL-2
[42] = system: SW-620
[43] = system: NCI-H522
[44] = system: NCI-H460
[45] = system: SF-539
[46] = system: OVCAR-8
[47] = system: HOP-92
[48] = system: K562
[49] = system: DLD-1
[50] = system: HCT-15
[51] = system: CAKI-1
[52] = system: KM-20L2
[53] = system: NCI-H226
[54] = system: U-251
[55] = system: Malme-3M
[56] = system: OVCAR-5
[57] = system: HOP-62
[58] = system: DMS-114

Measured: GI50

CC(C)C1C(=O)NC(CO)Cc2c[nH]c3c(C(c4c[nH]c5ccccc45)C(O)CO)ccc(c23)N1C (stereo not drawn)
inactive: [1] 36.3 µM | [2] 21.7 µM | [3] 84.9 µM | [4] 20 µM | [5] 16.4 µM | [6] 3.38 µM | [7] 14.5 µM | [8] 30.1 µM | [9] > 100 µM | [10] > 100 µM | [11] > 100 µM | [12] 41.3 µM | [13] > 100 µM | [14] > 100 µM | [15] > 100 µM | [16] > 100 µM | [17] 23.5 µM | [18] 37.2 µM | [19] > 100 µM | [20] 79.8 µM | [21] > 100 µM | [22] > 100 µM | [23] 4.79 µM | [24] 96.4 µM | [25] 49 µM | [26] > 100 µM | [27] > 100 µM | [28] > 100 µM | [29] > 100 µM | [30] > 100 µM | [31] > 100 µM | [32] 5.56 µM | [33] 62.8 µM | [34] 5.11 µM | [35] 54.7 µM | [36] > 100 µM | [37] > 100 µM | [38] > 100 µM | [39] > 100 µM | [40] > 100 µM | [41] > 100 µM | [42] 74.8 µM | [43] > 100 µM | [44] 5.02 µM | [45] > 100 µM | [46] > 100 µM | [48] 4.19 µM | [49] > 100 µM
active: [47] 0.612 µM

CCOC(=O)CN(Cn1cncn1)Cn1cncn1
inactive: [1] 50.7 µM | [3] 20.6 µM | [4] 20.4 µM | [5] 24.2 µM | [6] 33.2 µM | [8] 47 µM | [9] 46.8 µM | [10] 20.2 µM | [51] 56 µM | [11] > 100 µM | [12] 36.6 µM | [13] 21 µM | [14] 30.8 µM | [15] 18.4 µM | [17] 40.6 µM | [18] 39.4 µM | [52] 22.5 µM | [19] 55.2 µM | [20] 33.3 µM | [21] > 10 µM | [23] 36.9 µM | [24] 40.2 µM | [53] 28.1 µM | [25] 45.4 µM | [26] 20.5 µM | [54] 17.9 µM | [27] 38.7 µM | [28] > 100 µM | [29] 14.8 µM | [30] > 100 µM | [31] 43.8 µM | [32] 32.8 µM | [55] 52 µM | [33] 58.6 µM | [34] 35.7 µM | [35] 91 µM | [36] 17.6 µM | [37] 29.4 µM | [56] > 100 µM | [38] 34.6 µM | [39] 19.6 µM | [41] 38.2 µM | [42] 24.1 µM | [44] 24.9 µM | [46] 24.7 µM | [47] > 100 µM | [48] 40.6 µM | [49] 34.9 µM | [57] > 100 µM
22 µM: [50]

COc1cc(C2c3cc4c(cc3[C@H](NS(C)(=O)=O)C3COC(=O)[C@H]23)OCO4)cc(OC)c1OC (stereo partly drawn)
active: [2] 0.251 µM | [4] 0.56 µM | [6] 0.435 µM | [8] 0.444 µM | [10] 0.108 µM | [12] 0.51 µM | [13] 0.419 µM | [52] 0.162 µM | [19] 0.394 µM | [20] 0.162 µM | [21] 0.426 µM | [22] 0.223 µM | [23] 0.186 µM | [24] 0.731 µM | [53] 0.177 µM | [25] 0.418 µM | [26] 0.297 µM | [54] 0.327 µM | [58] 0.226 µM | [33] 0.471 µM | [34] 0.253 µM | [36] 0.612 µM | [37] 0.482 µM | [38] 0.34 µM | [40] 0.778 µM | [43] 0.0671 µM | [44] 0.615 µM | [45] 0.165 µM | [46] 0.439 µM | [48] 0.415 µM | [49] 0.592 µM | [57] 0.177 µM
0.448 µM: [50]
inactive: [1] > 100 µM | [28] 9.35 µM | [32] > 100 µM | [55] > 100 µM | [56] > 100 µM | [41] > 100 µM
